Laboratory results from patent publication US9745299B2, “Substituted tricyclic benzimidazoles as kinase inhibitors” (SELVITA SA, priority 2012, dated 2017).
Where a name gives a salt, the structure may show the parent alone. Blank lines part the entries; values can stand above or below the compound they belong to.

Key:
HCT116 cells [1] = test: Matrigel Invasion Chambers, HCT116 invasion; assay type: cell-based, human; conditions: increasing concentrations, 22 h, 10% FBS chemoattractant
Protocol: Matrigel Invasion Chambers [catalog number 354480 (BD Biosciences)] are useful to study cell invasion of malignant and normal cells. Matrigel Invasion Chambers can be used to study the mechanisms of invasion and to identify factors that interfere with this process in an in vitro environment. According to standard assays known to the skilled person, 5×10^4 HCT116 cells/ml were added in each case to the upper chamber of the Matrigel Invasion Chambers in the presence of increasing concentrations of “Example 1K”, whereas chemoatractant comprising 10% FBS was added to the lower chamber. The Invasion Chambers were incubated for 22 h in a humidified tissue culture incubator at 37° C., 5% CO2. Non-invading cells were removed by scrubing. The cells on the lower surface of the membrane were then stained with Diff-Quik™ stain. The results shown in FIG. 4 indicate that strong and selective CDK8 inhibitors as the “Example 1K” compound appear to be capable of repressing invasiveness of HCT116 colon cancer cells.

CDK7/CyclinH/MAT1 = target: T1, CDK7/CyclinH/MAT1 (Homo sapiens, UniProt P50613); test: ADP-Glo Kinase Assay, CDK7/CyclinH/MAT1; assay type: biochemical; conditions: read-out: % inhibition at 1 μM CDK7/CyclinH/MAT1
T1 construct: purchased Millipore, Billerica, Mass., USA
Protocol: Testing of the compounds described in this invention was carried out using the ADP-Glo™ Kinase Assay from Promega Corporation (Madison, Wis., USA).
The ADP-Glo™ Kinase Assay is a luminescent ADP detection assay to measure kinase activity by quantifying the amount of ADP produced during a kinase reaction. The kinase assay is performed in kinase assay buffer (5 mM MOPS, pH 7.5, 5 mM MgCl2, 0.4 mM EDTA, 1.5 mM DTT). Test samples initially dissolved in DMSO at 10 mM were diluted with the assay buffer to 1000 nM. A 30 μL volume/well of a mixture of substrates containing ATP (final ATP concentration in each kinase assay was equal to its apparent ATP Km).
The assay was performed in two steps: first, after the kinase reaction, an equal volume of ADP-Glo™ Reagent was added to terminate the kinase reaction and deplete the remaining ATP. Second, the Kinase Detection Reagent was added to simultaneously convert ADP to ATP and allowed the newly synthesized ATP to be measured using a luciferase/luciferin reaction. The luminescent signal generated was proportional to the ADP concentration produced and was correlated with kinase activity.

HCT116 tumor = test: HCT116 xenograft tumor growth in NOD/SCID mice; assay type: in vivo; conditions: oral administration, 30 mg/kg
Protocol: The substituted Tricyclic Benzimidazoles of the present invention are useful as anti-cancer agents due to their ability to reduce tumor growth in vivo in mammals. Various well-accepted animal models exist for cancer. By way of example, antitumor activity can be evaluated in vivo in murine xenograft models. Briefly, female mice, NOD/SCID, 5-6 weeks old, were used for the study. On the 1st experimental day, 5*10^6 HCT116 cells were suspended in 0.1 ml 0.9% NaCl+Matrigel® (BD Biosciences) (1:1, v:v) and were injected subcutaneously, on the right side just above the groin. As the tumor growth was progressing, the tumor size was measured every day, and the tumor volume was computed from the formula: TV=(a*a*b)/2 in mm3, where a is the short axis in mm, and b is the long axis in mm. When the average tumor volume reached and exceeded 100 mm3, mice were randomized into uniform groups and subjected to the compound administrations. The administration of the compound was performed and continued according to the experimental schedule.
The tumor volume was monitored throughout the study and the tumor growth inhibition (TGI) was computed using the following formula: TGI [%]=((Av Norm TGC−Av Norm TGT)/Av Norm TGC)×100, where Av Norm TGC is the mean (average) normalized tumor growth of the control group, and Av Norm TGT is the mean (average) normalized tumor growth of the treated group. […]

TNFalpha = test: LPS assay, TNFα ELISA in RAW 264.7; assay type: cell-based, mouse; conditions: RAW 264.7, 4 h pre-incubation, LPS 1 μg/ml for 6 h
Text: (§1) The LPS assay was used to evaluate ability to respond to an inflammatory stimulus by mounting an acute phase response. The acute phase response is characterized by a dramatic increase in the production of a group of proteins by the liver. Bacterial LPS is an endotoxin, a potent inducer of the acute phase response and systemic inflammation. This response is induced by the production of TNFα, IL-1β, and IL-6 from activated monocytes and neutrophils in response to inflammatory stimuli. Evaluation of the three pro-inflammatory cytokines, TNFα, IL-1β, and IL-6, is the current standard method for evaluation of the ability of the immune system to mount an innate inflammatory immune response. In each case, and by methods known to those practiced in the art, RAW 264.7 Mouse leukaemic monocyte macrophage cells were plated at the density of 40 000 cells per well. Next day, cells were pre-incubated with tested compounds (fconc=10 μM) for 4 h and then stimulated with LPS (fconc=1 μg/ml) for 6 h. In the cell culture media IL-6 and TNFα levels were examined by ELISA using BD OptEIA™ Mouse IL-6 ELISA Set Cat. No 555240 and BD OptEIA™ Mouse TNFα ELISA Set Cat. No 555268 (BD Biosciences Pharmingen, SanDiego, Calif., USA), according to manufacturer's instructions.

HCT116 cells [2] = test: Combination with Oxaliplatin, MTS cell viability assay, Chou-Thalay method; assay type: cell-based, human
Text: Various well-accepted models exist for determination of synergistic and additive effect for two or more drugs in combination. As a matter of example combination index CI can be used as a quantitative measure of the degree of drug interaction in terms of synergism, additive effects and antagonism for a given endpoint of the measurement:
Synergism (C<1) greater than expected additive effect
Additive effect (CI=1) the combined effect predicted by the mass-action law principle in the absence of synergism or antagonism
Antagonism (CI>1) Smaller than expected additive effect
In the present example, the drug interactions between compound “Example 6” and Oxaliplatin which is a platinum-based type of anticancer chemotherapy medicine used to treat colorectal cancer were tested in HCT116 cells. Experimental data points in the MTS cell viability assay were spread for Oxaliplatin below and above the ED50 values in HCT116 cells, whereas concentration of the tested compounds was close to the apparent ED50. Chou-Thalay method for quantification of synergy was applied [Chou et al. Cancer Res. 15; 70(2):440-6, (2010)].

IL6 = test: LPS assay, IL-6 ELISA in RAW 264.7; assay type: cell-based, mouse; conditions: RAW 264.7, 4 h pre-incubation, LPS 1 μg/ml for 6 h
Text: as §1

T1 sequence (P50613 whole entry): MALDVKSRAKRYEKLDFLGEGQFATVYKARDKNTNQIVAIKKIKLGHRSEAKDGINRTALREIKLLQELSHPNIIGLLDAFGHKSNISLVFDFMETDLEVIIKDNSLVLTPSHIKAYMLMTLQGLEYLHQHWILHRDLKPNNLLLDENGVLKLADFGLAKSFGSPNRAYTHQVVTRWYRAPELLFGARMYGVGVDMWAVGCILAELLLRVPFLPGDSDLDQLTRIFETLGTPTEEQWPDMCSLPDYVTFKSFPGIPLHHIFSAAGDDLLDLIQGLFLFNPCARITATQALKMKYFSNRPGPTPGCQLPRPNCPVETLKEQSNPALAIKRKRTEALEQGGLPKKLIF
T1 sequence (P51946 whole entry partner): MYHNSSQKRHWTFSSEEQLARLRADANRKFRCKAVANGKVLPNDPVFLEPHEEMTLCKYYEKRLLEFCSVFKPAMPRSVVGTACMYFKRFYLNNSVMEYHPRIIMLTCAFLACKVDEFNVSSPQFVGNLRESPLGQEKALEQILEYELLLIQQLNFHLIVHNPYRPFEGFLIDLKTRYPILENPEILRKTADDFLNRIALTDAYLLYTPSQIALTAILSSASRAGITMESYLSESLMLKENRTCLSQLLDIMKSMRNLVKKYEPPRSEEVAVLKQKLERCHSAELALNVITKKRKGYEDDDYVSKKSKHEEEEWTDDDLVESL
T1 sequence (P51948 whole entry partner): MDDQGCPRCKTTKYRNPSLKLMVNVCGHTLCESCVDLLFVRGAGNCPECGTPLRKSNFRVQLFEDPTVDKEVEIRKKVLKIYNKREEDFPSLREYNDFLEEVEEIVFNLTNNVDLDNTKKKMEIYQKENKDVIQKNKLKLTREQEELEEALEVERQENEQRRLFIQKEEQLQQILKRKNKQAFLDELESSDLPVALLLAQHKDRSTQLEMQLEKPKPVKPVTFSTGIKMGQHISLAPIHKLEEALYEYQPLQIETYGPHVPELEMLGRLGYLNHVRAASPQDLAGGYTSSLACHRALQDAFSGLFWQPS

- inhibition at 1 µM (CDK7/CyclinH/MAT1): 0%
SMILES: Cc1c(Br)c(Br)c2c3c1nc(N1CCNCC1)n3CCC2 [Example 1K]
- invasiveness of HCT116 cells (FIG. 4) (HCT116 cells [1]): Repression of the invasiveness
- HCT116 tumor growth (FIG. 1) (HCT116 tumor): Inhibition of HCT116 tumor growth

- inhibition at 1 µM (CDK7/CyclinH/MAT1): 21%
SMILES: Brc1c(Br)c2c3c(nc(N4CCNCC4)n3CCC2)c1Br [Example 6, 7,8,9-tribromo-2-(piperazin-1-yl)-5,6-dihydro-4H-imidazo[4,5,1-ij]quinoline maleate]
- LPS-induced TNFalpha production (FIG. 3) (TNFalpha): dose dependent reduction
- Combination Index (CI) (HCT116 cells [2]; Example 6 0.6 μM + Oxaliplatin 0.0010 μM): 1.15
- Combination Index (CI) (HCT116 cells [2]; Example 6 0.6 μM + Oxaliplatin 0.01 μM): 0.99
- Combination Index (CI) (HCT116 cells [2]; Example 6 0.6 μM + Oxaliplatin 0.1 μM): 1.11
- Combination Index (CI) (HCT116 cells [2]; Example 6 0.6 μM + Oxaliplatin 1.0 μM): 0.69
- Combination Index (CI) (HCT116 cells [2]; Example 6 0.6 μM + Oxaliplatin 2.5 μM): 0.38
- Combination Index (CI) (HCT116 cells [2]; Example 6 0.6 μM + Oxaliplatin 5.0 μM): 0.29
- HCT116 tumor growth (FIG. 1) (HCT116 tumor): Inhibition of HCT116 tumor growth
- LPS-induced IL6 production (FIG. 3) (IL6): dose dependent reduction
